The source of these data is patent publication US11078170B2 (Assembly Biosciences, Inc., priority 2017, dated 2021).

By EC50 is commonly meant the concentration giving half of the maximal effect.

The test concerns HBV viral production from HepAD38 cells. As to the kind of experiment: Activity of test compounds on viral production from HepAD38 cells (viral load by qPCR of HBV core sequence in supernatant). As to conditions: Hepatitis B virus, 120 h, 5 days incubation, HBV DNA in supernatant by qPCR, top concentration 10 μM, read-out: Viral Load EC50 Activity range. The class given is cell-based. An outline of the steps: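 HepAD38 cells, 50,000/well in tetracycline-free 2% FBS medium, treated 5 days at 37° C. with compound from 10 μM top concentration. HBV DNA in supernatant quantified by TaqMan qPCR of core sequence against DNA standards, relative to DMSO wells; CellTiter-Glo viability read in parallel. EC50/CC50 from four-parameter logistic fit.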
On the technique in general: Quantitative PCR measures a nucleic acid by following its amplification.
Take `CN1[C@@H](C(=O)Nc2ccc(F)c(Cl)c2)C[C@@H](c2ccc(-c3ccc(C#N)c(F)c3)s2)NS1(=O)=O` [HBV-CSU-156-ISO-II, Cis-N-(3-chloro-4-fluorophenyl)-5-(5-(4-cyano-3-fluorophenyl)thiophen-2-yl)-2-methyl-1,2,6-thiadiazinane-3-carboxamide 1,1-dioxide]: the EC50 is more than 5000 nM.

Turning to `CN1C(C(=O)Nc2ccc(F)cc2)CC(c2cccs2)NS1(=O)=O` (racemic) [HBV-CSU-007, Cis-N-(4-Fluorophenyl)-2-methyl-5-(thiophen-2-yl)-1,2,6-thiadiazinane-3-carboxamide 1,1-dioxide], the EC50 is less than 1000 nM.

In the case of `CN1C(C(=O)Nc2ccc(F)c(Cl)c2)CC(c2ccc(-c3ccc(NS(C)(=O)=O)cc3)s2)NS1(=O)=O` (racemic) [HBV-CSU-163, Cis-N-(3-chloro-4-fluorophenyl)-2-methyl-5-(5-(4-(methylsulfonamido)phenyl)thiophen-2-yl)-1,2,6-thiadiazinane-3-carboxamide 1,1-dioxide], the EC50 is less than 1000 nM.

With `CN1C(C(=O)Nc2ccc(F)c(Cl)c2)CC(c2ccc(-c3cn[nH]c3)s2)NS1(=O)=O` (centres unmarked) [HBV-CSU-244], the EC50 was less than 1000 nM.

Turning to `CN1[C@@H](C(=O)Nc2ccc(F)c(Cl)c2)C[C@@H](c2cc(-c3ccc(F)cn3)cs2)NS1(=O)=O` (stereo in doubt) [HBV-CSU-243-ISO-I, Cis-N-(3-chloro-4-fluorophenyl)-5-(4-(5-fluoropyridin-2-yl)thiophen-2-yl)-2-methyl-1,2,6-thiadiazinane-3-carboxamide 1,1-dioxide], the EC50 is more than 5000 nM.

Regarding `CN1C(C(=O)Nc2ccc(F)c(Cl)c2)CC(c2cc(-c3ccc(C#N)c(F)c3)cs2)NS1(=O)=O` (racemic) [HBV-CSU-164, Cis-N-(3-chloro-4-fluorophenyl)-5-(4-(4-cyano-3-fluorophenyl)thiophen-2-yl)-2-methyl-1,2,6-thiadiazinane-3-carboxamide 1,1-dioxide], the EC50 was less than 1000 nM.

As for `CN1C(C(=O)Nc2ccc(F)c(Cl)c2)CC(c2nc3ccccc3s2)NS1(=O)=O` (racemic) [HBV-CSU-364, Cis-5-(benzo[d]thiazol-2-yl)-N-(3-chloro-4-fluorophenyl)-2-methyl-1,2,6-thiadiazinane-3-carboxamide 1,1-dioxide], the EC50 is less than 1000 nM.

On to `CN1[C@@H](C(=O)Nc2ccc(F)c(Cl)c2)C[C@@H](c2cc(-c3cncn3C)cs2)NS1(=O)=O` (relative stereo) [HBV-CSU-285-ISO-II, Cis-N-(3-Chloro-4-fluorophenyl)-2-methyl-5-(4-(1-methyl-1H-imidazol-5-yl)thiophen-2-yl)-1,2,6-thiadiazinane-3-carboxamide 1,1-dioxide], for which the EC50 is less than 1000 nM.

`CN1C(C(=O)Nc2ccc(F)c(Cl)c2)CC(c2ccc(OCC(=O)O)cc2)NS1(=O)=O` (racemic) [HBV-CSU-216, Cis-2-(4-(5-((3-Chloro-4-fluorophenyl)carbamoyl)-6-methyl-1,1-dioxido-1,2,6-thiadiazinan-3-yl)phenoxy)acetic acid]: the EC50 was more than 5000 nM.

As for `CN1[C@H](C(=O)Nc2ccc(F)c(Cl)c2)C[C@H](c2cc(-c3cn[nH]c3)cs2)NS1(=O)=O` [HBV-CSU-245-ISO-I], the EC50 was less than 1000 nM.

Regarding `CN1C(C(=O)Nc2ccc(F)c(Cl)c2)CC(c2cc(-c3ccccn3)cs2)NS1(=O)=O` (racemic) [HBV-CSU-168, Cis-N-(3-chloro-4-fluorophenyl)-2-methyl-5-(4-(pyridin-2-yl)thiophen-2-yl)-1,2,6-thiadiazinane-3-carboxamide 1,1-dioxide], the EC50 is less than 1000 nM.

As to `[2H]C1[C@]([2H])(c2ccc(Br)s2)NS(=O)(=O)N(C)[C@]1([2H])C(=O)Nc1ccc(F)c(Cl)c1` (stereo in doubt) [HBV-CSU-371-ISO-I, Cis-5-(5-Bromothiophen-2-yl)-N-(3-chloro-4-fluorophenyl)-2-methyl-1,2,6-thiadiazinane-3,4,5-d3-3-carboxamide 1,1-dioxide], the EC50 is less than 1000 nM.

Regarding `CN1C(C(=O)Nc2ccc(F)c(Cl)c2)CC(c2ccc(OC(F)F)cc2)NS1(=O)=O` (racemic) [HBV-CSU-263, Cis-N-(3-Chloro-4-fluorophenyl)-5-(4-(difluoromethoxy)phenyl)-2-methyl-1,2,6-thiadiazinane-3-carboxamide 1,1-dioxide], the EC50 is less than 1000 nM.

Consider `CN1[C@H](C(=O)Nc2ccc(F)c(Cl)c2)C[C@H](c2cc(-c3nncn3C)cs2)NS1(=O)=O` [HBV-CSU-328-ISO-I, Cis-N-(3-chloro-4-fluorophenyl)-2-methyl-5-(4-(4-methyl-4H-1,2,4-triazol-3-yl)thiophen-2-yl)-1,2,6-thiadiazinane-3-carboxamide 1,1-dioxide], for which the EC50 was less than 1000 nM.

Consider `Cc1c(-c2csc(C3CC(C(=O)Nc4ccc(F)c(Cl)c4)N(C)S(=O)(=O)N3)c2)cnn1C` (stereo not drawn) [HBV-CSU-315, Cis-N-(3-chloro-4-fluorophenyl)-5-(4-(1,5-dimethyl-1H-pyrazol-4-yl)thiophen-2-yl)-2-methyl-1,2,6-thiadiazinane-3-carboxamide 1,1-dioxide], for which the EC50 is less than 1000 nM.

For the compound `CN1C(C(=O)Nc2ccc(F)c(Cl)c2)CC(c2cccc(-c3cnn(C)c3)c2)NS1(=O)=O` (racemic) [HBV-CSU-247, Cis-N-(3-chloro-4-fluorophenyl)-2-methyl-5-(3-(1-methyl-1H-pyrazol-4-yl)phenyl)-1,2,6-thiadiazinane-3-carboxamide 1,1-dioxide], the EC50 was less than 1000 nM.

Turning to `CN1C(C(=O)Nc2ccc(F)c(Cl)c2)CC(c2ccc(-c3cccnc3)s2)NS1(=O)=O` (racemic) [HBV-CSU-159, Cis-N-(3-chloro-4-fluorophenyl)-2-methyl-5-(5-(pyridin-3-yl)thiophen-2-yl)-1,2,6-thiadiazinane-3-carboxamide 1,1-dioxide], the EC50 is less than 1000 nM.

In the case of `Cc1cc([C@@H]2C[C@H](C(=O)Nc3ccc(F)c(Cl)c3)N(C)S(=O)(=O)N2)sc1-c1cnn(C)c1` [HBV-CSU-300-ISO-II, Cis-N-(3-Chloro-4-fluorophenyl)-5-(4-methyl-5-(1-methyl-1H-pyrazol-4-yl)thiophen-2-yl)-2-methyl-1,2,6-thiadiazinane-3-carboxamide 1,1-dioxide], the half-maximal effective concentration (EC50) is more than 5000 nM.

In the case of `CN1[C@H](C(=O)Nc2ccc(F)c(Cl)c2)C[C@H](c2ccc(-c3cncs3)s2)NS1(=O)=O` [HBV-CSU-268-ISO-I, Cis-N-(3-Chloro-4-fluorophenyl)-2-methyl-5-(5-(thiazol-5-yl)thiophen-2-yl)-1,2,6-thiadiazinane-3-carboxamide 1,1-dioxide], the half-maximal effective concentration (EC50) is less than 1000 nM.

For the compound `CN1[C@@H](C(=O)Nc2ccc(F)c(Cl)c2)C[C@@H](c2cc(-c3nncn3C)cs2)NS1(=O)=O` [HBV-CSU-328-ISO-II, Cis-N-(3-chloro-4-fluorophenyl)-2-methyl-5-(4-(4-methyl-4H-1,2,4-triazol-3-yl)thiophen-2-yl)-1,2,6-thiadiazinane-3-carboxamide 1,1-dioxide], the EC50 was more than 5000 nM.

Turning to `CSCCN1C(C(=O)Nc2ccc(F)c(Cl)c2)CC(c2nccs2)NS1(=O)=O` (racemic) [HBV-CSU-109, Cis-N-(3-Chloro-4-fluorophenyl)-2-(2-(methylthio)ethyl)-5-(thiazol-2-yl)-1,2,6-thiadiazinane-3-carboxamide 1,1-dioxide], the EC50 was less than 1000 nM.

For the compound `CN(C)CCCOc1ccc([C@@H]2C[C@H](C(=O)Nc3ccc(F)c(Cl)c3)N(C)S(=O)(=O)N2)cc1` [HBV-CSU-208-ISO-I, Cis-N-(3-chloro-4-fluorophenyl)-5-(4-(3-(dimethylamino)propoxy)phenyl)-2-methyl-1,2,6-thiadiazinane-3-carboxamide 1,1-dioxide], the EC50 was more than 5000 nM.

Take `CN1[C@@H](C(=O)Nc2ccc(F)c(Cl)c2)C[C@@H](c2ccc(-c3cn[nH]c3)s2)NS1(=O)=O` [HBV-CSU-244-ISO-II]: the EC50 was less than 1000 nM.

In the case of `CN1C(C(=O)Nc2ccc(F)c(Cl)c2)CC(c2ccc(-c3ccc(Br)c(F)c3)s2)NS1(=O)=O` (stereo not drawn) [HBV-CSU-157, Cis-N-(3-chloro-4-fluorophenyl)-5-(5-(4-bromo-3-fluorophenyl)thiophen-2-yl)-2-methyl-1,2,6-thiadiazinane-3-carboxamide 1,1-dioxide], the concentration giving a half-maximal response (EC50) lay in the range of 1000 to 5000 nM.

For the compound `CN(C)CCN1[C@H](c2cccs2)C[C@H](C(=O)Nc2ccc(F)c(Cl)c2)N(C)S1(=O)=O` [HBV-CSU-043-ISO-II, Cis-N-(3-chloro-4-fluorophenyl)-6-(2-(dimethylamino)ethyl)-2-methyl-5-(thiophen-2-yl)-1,2,6-thiadiazinane-3-carboxamide 1,1-dioxide], the EC50 was more than 5000 nM.

Turning to `CN1[C@H](C(=O)Nc2ccc(F)c(Cl)c2)C[C@H](c2ccc(C(N)=O)cc2)NS1(=O)=O` [HBV-CSU-214-ISO-II, Cis-5-(4-Carbamoylphenyl)-N-(3-chloro-4-fluorophenyl)-2-methyl-1,2,6-thiadiazinane-3-carboxamide 1,1-dioxide], the EC50 was less than 1000 nM.

As for `CN(C)CCCOc1cccc(C2CC(C(=O)Nc3ccc(F)c(Cl)c3)N(C)S(=O)(=O)N2)c1` (stereo not drawn) [HBV-CSU-209, Cis-N-(3-Chloro-4-fluorophenyl)-5-(3-(3-(dimethylamino)propoxy)phenyl)-2-methyl-1,2,6-thiadiazinane-3-carboxamide 1,1-dioxide], the EC50 is less than 1000 nM.

As for `COc1ccc(-c2ccc([C@H]3C[C@@H](C(=O)Nc4ccc(F)c(Cl)c4)N(C)S(=O)(=O)N3)s2)cc1` [HBV-CSU-240-ISO-I], the EC50 was less than 1000 nM.

Take `CN1[C@@H](C(=O)Nc2ccc(F)c(Cl)c2)C[C@@H](c2ncc(-c3ccn(C)n3)s2)NS1(=O)=O` (stereo in doubt) [HBV-CSU-280-ISO-II, Cis-N-(3-Chloro-4-fluorophenyl)-2-methyl-5-(5-(1-methyl-1H-pyrazol-3-yl)thiazol-2-yl)-1,2,6-thiadiazinane-3-carboxamide 1,1-dioxide]: the EC50 was less than 1000 nM.
